Measured values taken from PubChem BioAssay (NCI).
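Grown in 96-well plates, cells were treated for 48 hours with each compound at five concentrations. Insufficient inhibition: endpoint recorded as highest concentration tested. GI50 = concentration required for 50% inhibition of growth. TGI denotes the concentration required for complete inhibition of growth.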

How the values were obtained:
Assay in all cases: growth of human tumour cells (NCI), 48 h
RPMI-8226 leukemia = test system: RPMI-8226 leukemia
DU-145 prostate = test system: DU-145 prostate
MALME-3M melanoma = test system: MALME-3M melanoma
CCRF-CEM leukemia = test system: CCRF-CEM leukemia
KM12 colon = test system: KM12 colon
UACC-62 melanoma = test system: UACC-62 melanoma
A498 renal = test system: A498 renal
LOX IMVI melanoma = test system: LOX IMVI melanoma
EKVX NSCLC = test system: EKVX NSCLC
M14 melanoma = test system: M14 melanoma
MDA-MB-435 = test system: MDA-MB-435
COLO 205 colon = test system: COLO 205 colon
SK-MEL-5 melanoma = test system: SK-MEL-5 melanoma
NCI-H226 lung = test system: NCI-H226 lung
HL-60(TB) leukemia = test system: HL-60(TB) leukemia
OVCAR-3 ovarian = test system: OVCAR-3 ovarian
IGROV1 ovarian = test system: IGROV1 ovarian
NCI-H460 lung = test system: NCI-H460 lung
OVCAR-5 ovarian = test system: OVCAR-5 ovarian
U251 CNS = test system: U251 CNS
UO-31 renal = test system: UO-31 renal
786-0 renal = test system: 786-0 renal
UACC-257 melanoma = test system: UACC-257 melanoma
NCI-H522 lung = test system: NCI-H522 lung
CAKI-1 renal = test system: CAKI-1 renal
BT-549 breast = test system: BT-549 breast
ACHN renal = test system: ACHN renal
SNB-75 CNS = test system: SNB-75 CNS
SF-295 CNS = test system: SF-295 CNS
SR leukemia = test system: SR leukemia
HT29 colon = test system: HT29 colon
OVCAR-4 ovarian = test system: OVCAR-4 ovarian
SN12C renal = test system: SN12C renal
SNB-19 CNS = test system: SNB-19 CNS
SW-620 colon = test system: SW-620 colon
PC-3 prostate = test system: PC-3 prostate
HCT-116 colon = test system: HCT-116 colon
HCT-15 colon = test system: HCT-15 colon
TK-10 renal = test system: TK-10 renal
HCC-2998 colon = test system: HCC-2998 colon
OVCAR-8 ovarian = test system: OVCAR-8 ovarian
T-47D breast = test system: T-47D breast
A549 NSCLC = test system: A549 NSCLC
MOLT-4 leukemia = test system: MOLT-4 leukemia
NCI-H23 lung = test system: NCI-H23 lung
SK-OV-3 ovarian = test system: SK-OV-3 ovarian
MDA-MB-231 breast = test system: MDA-MB-231 breast
SK-MEL-2 melanoma = test system: SK-MEL-2 melanoma
SK-MEL-28 melanoma = test system: SK-MEL-28 melanoma
HS 578T breast = test system: HS 578T breast
SF-268 CNS = test system: SF-268 CNS
HOP-92 NSCLC = test system: HOP-92 NSCLC
MCF7 breast = test system: MCF7 breast
K-562 leukemia = test system: K-562 leukemia
RXF 393 renal = test system: RXF 393 renal
SF-539 CNS = test system: SF-539 CNS

CCOC(=O)/C=C/c1ccc([N+](=O)[O-])o1
GI50 (RPMI-8226 leukemia): 3.18 µM
TGI (RPMI-8226 leukemia): 12.2 µM
GI50 (DU-145 prostate): 3.17 µM
TGI (DU-145 prostate): 11.1 µM
GI50 (MALME-3M melanoma): 2.32 µM
TGI (MALME-3M melanoma): 4.99 µM
GI50 (CCRF-CEM leukemia): 0.518 µM
TGI (CCRF-CEM leukemia): 10.2 µM
GI50 (KM12 colon): 12.6 µM
TGI (KM12 colon): 27.6 µM
GI50 (UACC-62 melanoma): 1.71 µM
TGI (UACC-62 melanoma): 4.36 µM
GI50 (A498 renal): 21 µM
TGI (A498 renal): 48.8 µM
GI50 (LOX IMVI melanoma): 1.55 µM
TGI (LOX IMVI melanoma): 3.71 µM
GI50 (EKVX NSCLC): 24.7 µM
TGI (EKVX NSCLC): 80.7 µM
GI50 (M14 melanoma): 2.71 µM
TGI (M14 melanoma): 8.74 µM
GI50 (MDA-MB-435): 2.1 µM
TGI (MDA-MB-435): 4.67 µM
GI50 (COLO 205 colon): 2.26 µM
TGI (COLO 205 colon): 5.69 µM
GI50 (SK-MEL-5 melanoma): 3.81 µM
TGI (SK-MEL-5 melanoma): 15.2 µM
GI50 (NCI-H226 lung): 2.02 µM
TGI (NCI-H226 lung): 4.25 µM
GI50 (HL-60(TB) leukemia): 2.38 µM
TGI (HL-60(TB) leukemia): 6.78 µM
GI50 (OVCAR-3 ovarian): 3.13 µM
TGI (OVCAR-3 ovarian): 9.21 µM
GI50 (IGROV1 ovarian): 10.9 µM
TGI (IGROV1 ovarian): 24.8 µM
GI50 (NCI-H460 lung): 18.1 µM
TGI (NCI-H460 lung): 38.9 µM
GI50 (OVCAR-5 ovarian): 2.95 µM
TGI (OVCAR-5 ovarian): 8.13 µM
GI50 (U251 CNS): 14.7 µM
TGI (U251 CNS): 50.4 µM
GI50 (UO-31 renal): 1.69 µM
TGI (UO-31 renal): 3.42 µM
GI50 (786-0 renal): 2.13 µM
TGI (786-0 renal): 4.67 µM
GI50 (UACC-257 melanoma): 2.74 µM
TGI (UACC-257 melanoma): 11.4 µM
GI50 (NCI-H522 lung): 1.34 µM
TGI (NCI-H522 lung): 3.24 µM
GI50 (CAKI-1 renal): 2.06 µM
TGI (CAKI-1 renal): 4.38 µM
GI50 (BT-549 breast): 3.43 µM
TGI (BT-549 breast): 11.4 µM
GI50 (ACHN renal): 1.75 µM
TGI (ACHN renal): 3.8 µM
GI50 (SNB-75 CNS): 4.6 µM
TGI (SNB-75 CNS): 94 µM
GI50 (SF-295 CNS): 19.7 µM
TGI (SF-295 CNS): 48.2 µM
GI50 (SR leukemia): 1.64 µM
TGI (SR leukemia): 26.1 µM
GI50 (HT29 colon): 3.71 µM
TGI (HT29 colon): 15.1 µM
GI50 (OVCAR-4 ovarian): 4.93 µM
TGI (OVCAR-4 ovarian): 20.4 µM
GI50 (SN12C renal): 3.03 µM
TGI (SN12C renal): 10.8 µM
GI50 (SNB-19 CNS): 29 µM
TGI (SNB-19 CNS): > 100 µM
GI50 (SW-620 colon): 2.38 µM
TGI (SW-620 colon): 7.16 µM
GI50 (PC-3 prostate): 11.8 µM
TGI (PC-3 prostate): 39.9 µM
GI50 (HCT-116 colon): 1.62 µM
TGI (HCT-116 colon): 5.62 µM
GI50 (HCT-15 colon): 2.03 µM
TGI (HCT-15 colon): 7.53 µM
GI50 (TK-10 renal): 4.7 µM
TGI (TK-10 renal): 16.3 µM
GI50 (HCC-2998 colon): 11.2 µM
TGI (HCC-2998 colon): 24.2 µM
GI50 (OVCAR-8 ovarian): 2.91 µM
TGI (OVCAR-8 ovarian): 12.3 µM
GI50 (T-47D breast): 5.55 µM
TGI (T-47D breast): 25.9 µM
GI50 (A549 NSCLC): 25.3 µM
TGI (A549 NSCLC): > 100 µM
GI50 (MOLT-4 leukemia): 2.76 µM
TGI (MOLT-4 leukemia): 13 µM
GI50 (NCI-H23 lung): 4.12 µM
TGI (NCI-H23 lung): 18.4 µM
GI50 (SK-OV-3 ovarian): 22.4 µM
TGI (SK-OV-3 ovarian): > 100 µM
GI50 (MDA-MB-231 breast): 3.51 µM
TGI (MDA-MB-231 breast): 11.6 µM
GI50 (SK-MEL-2 melanoma): 11.3 µM
TGI (SK-MEL-2 melanoma): 36.8 µM
GI50 (SK-MEL-28 melanoma): 2.08 µM
TGI (SK-MEL-28 melanoma): 5.07 µM
GI50 (HS 578T breast): 5.74 µM
TGI (HS 578T breast): 53.9 µM
GI50 (SF-268 CNS): 5.38 µM
TGI (SF-268 CNS): 40.5 µM
GI50 (HOP-92 NSCLC): 2.66 µM
TGI (HOP-92 NSCLC): 6.36 µM
GI50 (MCF7 breast): 2.74 µM
TGI (MCF7 breast): 17.2 µM
GI50 (K-562 leukemia): 2.97 µM
TGI (K-562 leukemia): 12.9 µM
GI50 (RXF 393 renal): 1.82 µM
TGI (RXF 393 renal): 3.86 µM
GI50 (SF-539 CNS): 2.7 µM
TGI (SF-539 CNS): 7.4 µM
